We go through 60 molecules from article PMC12040169 (PLOS Biology, 2025).

The nature of the data set: in vitro. The note with it: human, hela cells, % viability.

In the case of `COc1cc(NC(=O)Nc2ccccc2OC)c(OC)cc1Cl` [CBK270329], the viability at 28.5 h, 10 µM is 95.7%.

For the molecule `CCNS(=O)(=O)c1ccc(NC(=O)Nc2ccccc2OC)cc1` [CBK270331], the viability at 28.5 h, 10 µM was 87.8%.

`O=C(NCCN1CCCCC1)c1cccc(Oc2ccccc2)c1` [CBK270335]: the viability at 28.5 h, 10 µM amounted to 98.2%.

On to `O=C(O)C1C2CCC(CC2)C1C(=O)N1CCN(Cc2ccccc2Cl)CC1` (stereo not drawn) [CBK270336], for which the viability at 28.5 h, 10 µM is 100%.

`COCc1cc(C)nc(SCC(=O)O)c1C#N` [CBK270463]: the viability at 28.5 h, 10 µM came to 88.2%.

On to `O=C(O)c1ccc(N2C(=O)CC(N3CCN(CCO)CC3)C2=O)cc1` (stereo not drawn) [CBK271638], for which the viability at 28.5 h, 10 µM was found to be 88.9%.

`O=C(CSc1ncccc1C(=O)O)c1ccccc1` [CBK273178]: the viability at 28.5 h, 10 µM was 94.1%.

As to `CCc1nnc(NC(=O)c2cccc(F)c2)s1` [CBK273362], the viability at 28.5 h, 10 µM was found to be 90.4%.

Turning to `O=C(O)c1ccccc1SC1CC(=O)N(c2ccccc2)C1=O` (stereo not drawn) [CBK273885], the viability at 28.5 h, 10 µM worked out at 94.6%.

As for `Cc1nc2ccccc2c(C(=O)O)c1-c1ccccc1` [CBK274187], the viability at 28.5 h, 10 µM turned out to be 91.5%.

Take `CCOc1ccc(NC(=O)C2CC=CCC2C(=O)O)cc1` (stereo not drawn) [CBK274682]: the viability at 28.5 h, 10 µM was determined as 110%.

`Cc1ccc2ncnc(NC(CC(C)C)C(=O)O)c2c1` (stereo not drawn) [CBK275388]: the viability at 28.5 h, 10 µM turned out to be 109%.

As for `O=C(O)C(CC1COc2ccccc2O1)C(=O)O` (stereo not drawn) [CBK276280], the viability at 28.5 h, 10 µM amounted to 89.6%.

As to `CN(Cc1ccccc1)S(=O)(=O)c1ccc(OCC(=O)O)cc1` [CBK276426], the viability at 28.5 h, 10 µM amounted to 97.9%.

For the molecule `O=C(O)CCCSCC(=O)Nc1ccccc1` [CBK276905], the viability at 28.5 h, 10 µM was found to be 88.4%.

In the case of `O=C(NCCCn1ccnc1)c1cc2ncc(Br)cn2n1` [CBK277080], the viability at 28.5 h, 10 µM is 97.6%.

In the case of `COc1ccc(NC(=O)CSc2ncnc3sc(C)cc23)c(OC)c1` [CBK277541], the viability at 28.5 h, 10 µM stood at 100%.

As for `Fc1ccc(COc2ccccc2CNCCN2CCOCC2)cc1` [CBK278150C], the viability at 28.5 h, 10 µM turned out to be 91.5%.

Consider `c1ccc2c(c1)n(CCN1CCOCC1)c1nc(C34CC5CC(CC(C5)C3)C4)cn21` [CBK278154C], for which the viability at 28.5 h, 10 µM is 105%.

With `O=C(Nc1ccc2c(O)cc(S(=O)(=O)O)cc2c1)Nc1ccc2c(O)cc(S(=O)(=O)O)cc2c1` [CBK278157N], the viability at 28.5 h, 10 µM amounted to 91.1%.

`Clc1ccc(OCc2ccccc2)c(CNCCN2CCOCC2)c1` [CBK278162C]: the viability at 28.5 h, 10 µM was determined as 93.4%.

Turning to `NNc1ccc(/C=C/c2ccc(NN)cc2S(=O)(=O)O)c(S(=O)(=O)O)c1` [CBK278163N], the viability at 28.5 h, 10 µM was 91.1%.

Turning to `O=S(=O)(O)c1cc(O)c2c(S(=O)(=O)O)cc(S(=O)(=O)O)cc2c1` [CBK278164N], the viability at 28.5 h, 10 µM was 94.9%.

As for `CN1C2CCC1CC(OC(=O)CN1CCCCC1)C2` (stereo not drawn) [CBK278166C], the viability at 28.5 h, 10 µM was 109%.

Consider `Cc1ccc(CNCCNCCO)s1` [CBK278168C], for which the viability at 28.5 h, 10 µM stood at 108%.

Consider `Brc1ccc(OCc2ccccc2)c(CNCCN2CCOCC2)c1` [CBK278171C], for which the viability at 28.5 h, 10 µM was 97%.

Consider `Cc1cc(C)c(NC(=O)C2CCCN2CCCN(C)C)c(C)c1` (stereo not drawn) [CBK278172F], for which the viability at 28.5 h, 10 µM was 97.1%.

Regarding `CC(CNC(=O)c1cncc(O)c1)NC(=O)c1cncc(O)c1` (stereo not drawn) [CBK278174], the viability at 28.5 h, 10 µM is 89.2%.

On to `Nc1cc(S(=O)(=O)O)c2cccnc2c1O` [CBK278176], for which the viability at 28.5 h, 10 µM stood at 75.4%.

In the case of `COc1ccc(Cl)cc1NC(=O)CCN1CCN(C)CC1` [CBK278177C], the viability at 28.5 h, 10 µM stood at 91%.

Regarding `CCOC(=O)Nc1ccc2c(c1)N(C(=O)CN1CCN(C)CC1)c1ccccc1CC2` [CBK278194C], the viability at 28.5 h, 10 µM amounted to 88.7%.

Turning to `OCCN1CCN(CC(O)COc2ccc(Cl)cc2Cl)CC1` (stereo not drawn) [CBK278198C], the viability at 28.5 h, 10 µM is 108%.

As for `Fc1ccc(-c2ccc(CNCCCN3CCOCC3)o2)cc1` [CBK278199C], the viability at 28.5 h, 10 µM is 84.5%.

On to `C[N+]1(C)CCN(C(=O)CCC(=O)N2CC[N+](C)(C)CC2)CC1` [CBK278200I], for which the viability at 28.5 h, 10 µM came out at 94.4%.

Take `CCN1/C(=C/C(=C/c2sc3ccccc3[n+]2CCCS(=O)(=O)[O-])OC)Sc2ccccc21` [CBK278203]: the viability at 28.5 h, 10 µM amounted to 99.7%.

Regarding `CN(C)CC(=O)N1c2ccccc2CCc2ccc(NC(=O)c3ccc([N+](=O)[O-])cc3)cc21` [CBK278207C], the viability at 28.5 h, 10 µM was determined as 87.4%.

Turning to `COc1ccc2ccccc2c1CNCCCN1CCOCC1` [CBK278209C], the viability at 28.5 h, 10 µM is 93.8%.

`Cc1ncc(CO)c(CN)c1O` [CBK278211C]: the viability at 28.5 h, 10 µM came out at 86.8%.

On to `c1ccc(COc2ccccc2CNCCN2CCOCC2)cc1` [CBK278212C], for which the viability at 28.5 h, 10 µM is 90.7%.

On to `CN(C)CCNCc1ccccc1OC1CCCC1` [CBK278214C], for which the viability at 28.5 h, 10 µM is 111%.

For `CN(C)CCNCc1cccc(OCc2ccccc2)c1` [CBK278216C], the viability at 28.5 h, 10 µM turned out to be 89.7%.

For the molecule `C(CSC1=NCCN1)CSC1=NCCN1` [CBK278217B], the viability at 28.5 h, 10 µM came to 106%.

With `CN1CCN(CCC(=O)N2c3ccccc3Sc3ccc(C(F)(F)F)cc32)CC1` [CBK278221C], the viability at 28.5 h, 10 µM is 103%.

Take `C1CN=C(SCCCCSC2=NCCCN2)NC1` [CBK278223B]: the viability at 28.5 h, 10 µM was 107%.

Take `c1ccc(COc2cccc(CNCCN3CCOCC3)c2)cc1` [CBK278226C]: the viability at 28.5 h, 10 µM came to 95.8%.

In the case of `Clc1ccc(COc2cccc(CNCCN3CCOCC3)c2)cc1` [CBK278227C], the viability at 28.5 h, 10 µM amounted to 85%.

For the molecule `CC(=O)c1c(-c2ccc(C)cc2)nc2n(CCN3CCCCC3)c3ccccc3n12` [CBK278231C], the viability at 28.5 h, 10 µM came out at 101%.

`COc1ccc(OCC(O)CN2CCN(c3ccccn3)CC2)cc1` (stereo not drawn) [CBK278239C]: the viability at 28.5 h, 10 µM was determined as 81.8%.

Regarding `Cc1nc2n(CCN3CCCCC3)c3ccccc3n2c1C(=O)c1cccs1` [CBK278242B], the viability at 28.5 h, 10 µM was determined as 88.6%.

`OC(COCc1ccc2c(c1)OCO2)CN1CCN(c2ccccn2)CC1` (stereo not drawn) [CBK278246C]: the viability at 28.5 h, 10 µM turned out to be 105%.

With `Cc1cc(OCC(O)CN2CCN(CCO)CC2)cc(C)c1Cl` (stereo not drawn) [CBK278248C], the viability at 28.5 h, 10 µM was 92.7%.

As for `Cc1cc(OCC(O)CN2CCN(CCO)CC2)ccc1C(C)C` (stereo not drawn) [CBK278254C], the viability at 28.5 h, 10 µM stood at 89%.

`Cc1nn2c3ccccc3nc2n1CCN1CCCCC1` [CBK278256C]: the viability at 28.5 h, 10 µM turned out to be 95.3%.

For the molecule `O=C(CCN1CCN2CCCCC2C1)N1c2ccccc2Sc2ccc(Cl)cc21` (stereo not drawn) [CBK278257F], the viability at 28.5 h, 10 µM was determined as 86.3%.

In the case of `Cc1nc2n(CCN3CCCCC3)c3ccccc3n2n1` [CBK278258C], the viability at 28.5 h, 10 µM came to 91.5%.

With `O=C(c1ccccc1)c1cc[n+](CCC[n+]2ccc(C(=O)c3ccccc3)cc2)cc1` [CBK278270B], the viability at 28.5 h, 10 µM worked out at 91.5%.

As to `O=[N+]([O-])c1cc([N+](=O)[O-])c(Nc2ccncc2)c([N+](=O)[O-])c1Nc1ccncc1` [CBK278276], the viability at 28.5 h, 10 µM stood at 96.1%.

For `CC(O)CNCCNCc1cccs1` (stereo not drawn) [CBK278279C], the viability at 28.5 h, 10 µM was 109%.

Turning to `CC(=C\C(=O)O)/C(=C\c1ccc(Br)cc1)C(=O)O` [CBK278280N], the viability at 28.5 h, 10 µM was determined as 88.1%.

For the molecule `c1ccc2c(c1)nc1n2CCN1CCN1CCCCC1` [CBK278283C], the viability at 28.5 h, 10 µM turned out to be 98.5%.
